# Target: ERK2 enzyme (Homo sapiens (Human), UniProt P28482)
# Experiment: Inhibition assay of ERK (Z'-LYTE kinase assay, Ser/Thr 3 peptide substrate)
# Format: biochemical
# Conditions: In vitro ERK2 enzyme, 100 μM ATP
# Method: The inhibition of ERK activity by the compounds disclosed herein was determined using the Z′-LYTE kinase assay kit (Life Technologies) with a Ser/Thr 3 peptide substrate (Life Technologies) according to manufacturers' instructions. […] The IC50 values for the compounds were determined with 3-fold serial dilutions in duplicate. […] The final DMSO concentration in the assay was 1%. Final reaction volume was 20 μL/well in 384-well plates. Kinase reactions were conducted or 1 hour followed by the assay development reaction (1 hour) in a 20 ul/well in a 384 well plate format.
# Chain of ERK2 enzyme (P28482 whole entry): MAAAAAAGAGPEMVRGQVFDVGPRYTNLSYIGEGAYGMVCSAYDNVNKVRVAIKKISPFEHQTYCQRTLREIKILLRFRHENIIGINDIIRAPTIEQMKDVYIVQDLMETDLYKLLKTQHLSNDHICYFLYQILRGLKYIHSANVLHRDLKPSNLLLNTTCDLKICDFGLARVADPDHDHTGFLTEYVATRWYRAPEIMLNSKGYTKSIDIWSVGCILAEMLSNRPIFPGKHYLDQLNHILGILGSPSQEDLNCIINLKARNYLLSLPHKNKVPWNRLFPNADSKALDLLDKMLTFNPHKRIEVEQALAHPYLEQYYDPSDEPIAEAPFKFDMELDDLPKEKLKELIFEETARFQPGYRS
row,SMILES,IC50 [nM]
1,[2H]c1c([2H])c([2H])c(C([2H])([2H])N2CCC[C@@H](N3Cc4cc5c(-c6ccnc(C)c6)n[nH]c5cc4NC3=O)C2)c([2H])c1[2H] [Compound 165],< 50
2,Cc1cc(-c2n[nH]c3cc4c(cc23)CN([C@@H]2CCCN(Cc3cccc(F)c3)C2)C(=O)N4)ccn1 [Compound 184],< 50
3,Cc1cc(-c2n[nH]c3cc4c(cc23)CN(Cc2ccc(F)c(F)c2)C(=O)N4)ccn1 [Compound 13],< 50
4,COc1ncc(-c2n[nH]c3cc4c(cc23)CN([C@H](CO)c2cccc(Cl)c2)C(=O)N4)cn1 [Compound 118],< 50
5,COc1ncc(-c2n[nH]c3cc4c(cc23)CN([C@H](C)c2cccc(C#N)c2)C(=O)N4)cn1 [Compound 100],< 50
6,Cc1cc(-c2n[nH]c3cc4c(cc23)CN([C@@H]2CCCN(Cc3ccccc3)C2)C(=O)N4)ccn1 [Compound 63],< 50
7,Cc1cc(-c2n[nH]c3cc4c(cc23)CN([C@@H]2CCCN(Cc3c(F)cccc3F)C2)C(=O)N4)ccn1 [Compound 143],< 50
8,Cc1cc(-c2n[nH]c3cc4c(cc23)CN(C2CCN(CCc3ccccc3)CC2)C(=O)N4)ccn1 [Compound 157],50 to 250
9,[2H]C([2H])(c1ccccc1)N1CCC[C@@H](N2Cc3cc4c(-c5ccnc(C)c5)n[nH]c4cc3NC2=O)C1 [Compound 148],< 50
10,Cc1cc(-c2n[nH]c3cc4c(cc23)CN([C@@H]2CCCN(c3cccc(Cl)c3)C2)C(=O)N4)ccn1 [Compound 174],< 50
11,COc1ncc(-c2n[nH]c3cc4c(cc23)CN(Cc2cc(F)cc(F)c2)C(=O)N4)cn1 [Compound 88],< 50
12,COc1ncc(-c2n[nH]c3cc4c(cc23)CN([C@H](C)c2cccc(Cl)c2)C(=O)N4)cn1 [Compound 71],< 50
13,Cc1cc(-c2n[nH]c3cc4[nH]c(=O)n(CCc5ccccc5)c4cc23)ccn1 [Compound 20],50 to 250
14,Cc1cc(-c2n[nH]c3cc4c(cc23)CN(C2CCOCC2)C(=O)N4)ccn1 [Compound 44],< 50
15,Cc1cc(-c2n[nH]c3cc4c(cc23)CN(CCO)C(=O)N4)ccn1 [Compound 43],< 50
16,C[C@H](c1ccc(Cl)cc1)N1Cc2cc3c(-c4ccnnc4)n[nH]c3cc2NC1=O [Compound 115],< 50
17,COc1ncc(-c2n[nH]c3cc4c(cc23)CN([C@@H]2CCCN(Cc3ccccc3F)C2)C(=O)N4)cn1 [Compound 101],< 50

row,SMILES,IC50 [nM]
1,Cc1cc(-c2n[nH]c3cc4c(cc23)CN(CCc2ccc(F)cc2)CC(=O)N4)ccn1 [Compound 67],250 to 1000
2,Cc1cc(-c2n[nH]c3cc4c(cc23)CN([C@@H]2CCCN(Cc3ccc(F)cc3F)C2)C(=O)N4)ccn1 [Compound 196],< 50
3,COc1cccc(F)c1CN1CCC[C@@H](N2Cc3cc4c(-c5ccnc(C)c5)n[nH]c4cc3NC2=O)C1 [Compound 144],< 50
4,Cc1cc(-c2n[nH]c3cc4c(cc23)CN([C@@H]2CCCNC2)C(=O)N4)ccn1 [Compound 32],50 to 250
5,COc1cccc(F)c1CN1CCC[C@@H](N2Cc3cc4c(-c5ccnnc5)n[nH]c4cc3NC2=O)C1 [Compound 126],< 50
6,Cc1cc(-c2n[nH]c3cc4c(cc23)CN(CCN2CCOCC2)C(=O)N4)ccn1 [Compound 51],< 50
7,Cc1cc(-c2n[nH]c3cc4c(cc23)CN(Cc2ccc(C#N)cc2)C(=O)N4)ccn1 [Compound 39],< 50
8,COc1ncc(-c2n[nH]c3cc4c(cc23)CN(Cc2cccc(Cl)c2)CC(=O)N4)cn1 [Compound 98],> 1000
9,COc1ncc(-c2n[nH]c3cc4c(cc23)CN(CC2CCNCC2)C(=O)N4)cn1 [Compound 81],250 to 1000
10,"O=C1Nc2cc3[nH]nc(-c4ccncc4)c3cc2CN1Cc1ccccc1 [Compound 1, 6-benzyl-3-(pyridin-4-yl)-1,5,6,8-tetrahydro-7H-pyrazolo[4,3-g]quinazolin-7-one]",< 50
11,Cc1cc(-c2n[nH]c3cc4c(cc23)CN(Cc2cccc(Cl)c2)C(=O)N4)ccn1 [Compound 4],< 50
12,Cc1cc(-c2n[nH]c3cc4c(cc23)CN(CCNCc2ccc(F)c(Cl)c2)C(=O)N4)ccn1 [Compound 173],< 50
13,O=C1Nc2cc3[nH]nc(-c4ccnnc4)c3cc2CN1[C@H](CO)c1cccc(Cl)c1 [Compound 117],< 50
14,O=C1Nc2cc3[nH]nc(-c4ccc5nncn5c4)c3cc2CN1Cc1cccc(Cl)c1 [Compound 59],< 50
15,O=C1Nc2cc3[nH]nc(-c4ccnnc4)c3cc2CN1Cc1cccc(C(F)(F)F)c1 [Compound 124],< 50
16,O=C1Nc2cc3[nH]nc(-c4ccnnc4)c3cc2CN1[C@@H]1CCCN(Cc2c(F)cccc2F)C1 [Compound 122],< 50

# Same assay, conditions: In vitro, ERK2 enzyme 0.47 ng/μL, 100 μM ATP
row,SMILES,IC50 [nM]
1,Cc1ccc(-c2n[nH]c3cc4c(cc23)CN([C@@H]2CCCN(Cc3ccc(F)cc3F)C2)C(=O)N4)cn1 [Compound 284],< 50
2,Cc1cc(-c2n[nH]c3cc4c(cc23)CN([C@@H]2CCCN(Cc3cccs3)C2)C(=O)N4)ccn1 [Compound 254],< 50
3,Cc1ncc(-c2n[nH]c3cc4c(cc23)CN([C@@H]2CCCN(Cc3ccc(F)cc3F)C2)C(=O)N4)cn1 [Compound 293],< 50
4,Cc1cc(-c2n[nH]c3cc4c(cc23)CN([C@@H]2CN(CC(F)(F)F)C[C@H]2c2ccccc2)C(=O)N4)ccn1 [Compound 222],50 to 250
5,Cc1cc(-c2n[nH]c3cc4c(cc23)CN([C@@H]2CCCN(Cc3ccc(C)s3)C2)C(=O)N4)ccn1 [Compound 245],< 50
6,CC(c1ccccc1)c1cc2cc3c(-c4ccnc(N5CCN(C)CC5)c4)n[nH]c3cc2[nH]c1=O (stereo not shown) [Compound 318],< 50
7,CC(c1ccccc1)c1cc2cc3c(NC4CCOCC4)n[nH]c3cc2[nH]c1=O (stereo not shown) [Compound 338],< 50
8,CC(c1ccccc1)c1cc2cc3c(-c4ccncc4)n[nH]c3cc2[nH]c1=O (stereo not shown) [Compound 326],< 50
9,COc1ncc(-c2n[nH]c3cc4[nH]c(=O)c(C5CCCN(Cc6ccccc6)C5)cc4cc23)cn1 (stereo not shown) [Compound 364],< 50
10,Cc1cc(-c2n[nH]c3cc4c(cc23)CN([C@@H]2CN(C)C[C@H]2c2ccccc2)C(=O)N4)ccn1 (racemic) [Compound 241],< 50
11,Cc1cc(-c2n[nH]c3cc4[nH]c(=O)c(CC5CCCCC5)cc4cc23)ccn1 [Compound 266],< 50
12,Cn1cc(-c2n[nH]c3cc4c(cc23)CN([C@@H]2CCN(CC(F)(F)F)C2)C(=O)N4)cn1 [Compound 259],< 50
13,COc1ccc(-c2n[nH]c3cc4[nH]c(=O)c(C5CCCN(Cc6ccccc6)C5)cc4cc23)cn1 (stereo not shown) [Compound 367],50 to 250
14,Cc1ncc(-c2n[nH]c3cc4c(cc23)CN([C@@H]2CN(CC(F)(F)F)C[C@H]2c2ccccc2)C(=O)N4)cn1 [Compound 349],< 50
15,Cc1cc(-c2n[nH]c3cc4c(cc23)CN(Cc2ccc(C(F)(F)F)cc2)C(=O)N4)cc(C)n1 [Compound 233],< 50
16,CCN1CC[C@@H](N2Cc3cc4c(-c5ccnc(C)c5)n[nH]c4cc3NC2=O)C1 [Compound 256],< 50
17,Cc1cc(-c2n[nH]c3cc4c(cc23)CN(C2CN(CC3CCCC3)CC(F)(F)C2)C(=O)N4)ccn1 (stereo not shown) [Compound 201],250 to 1000

row,SMILES,IC50 [nM]
1,Cc1cc(-c2n[nH]c3cc4c(cc23)CN(C2CN(Cc3cc(F)cc(F)c3)CC(F)(F)C2)C(=O)N4)ccn1 (stereo not shown) [Compound 202],250 to 1000
2,Cc1cc(-c2n[nH]c3cc4c(cc23)CN([C@@H]2CN(CC(F)(F)F)C[C@H]2C)C(=O)N4)ccn1 (racemic) [Compound 302],< 50
3,COc1cc(-c2n[nH]c3cc4c(cc23)CN([C@@H]2CCCN(Cc3ccc(F)cc3F)C2)C(=O)N4)ccn1 [Compound 271],< 50
4,Cc1cc(-c2n[nH]c3cc4c(cc23)CN([C@@H]2CN(CC(F)(F)F)C[C@H]2C(F)(F)F)C(=O)N4)ccn1 [Compound 331],< 50
5,Cc1cc(-c2n[nH]c3cc4c(cc23)CN([C@@H]2CN(CC(F)(F)F)C[C@H]2C(C)C)C(=O)N4)ccn1 (mixture of isomers) [Compound 322],50 to 250
6,Cc1cc(-c2n[nH]c3cc4c(cc23)CN([C@@H]2CN(C(C)C)C[C@H]2c2ccccc2)C(=O)N4)ccn1 (racemic) [Compound 279],< 50
7,Cc1cc(-c2n[nH]c3cc4c(cc23)CN([C@@H]2CN(Cc3ccccc3)CC(F)(F)C2)C(=O)N4)ccn1 [Compound 263],250 to 1000
8,Cc1cc(-c2n[nH]c3cc4c(cc23)CN([C@@H]2CN(CC(F)F)C[C@H]2c2ccccc2)C(=O)N4)cc(C)n1 (mixture of isomers) [Compound 379],< 50
9,COc1cc(-c2n[nH]c3cc4c(cc23)CN([C@@H]2CCCN(Cc3ccccc3)C2)C(=O)N4)ccn1 [Compound 270],< 50
10,C=C(c1ccccc1)c1cc2cc3c(-c4ccnc(C)c4)n[nH]c3cc2[nH]c1=O [Compound 269],< 50
11,Cc1cc(-c2n[nH]c3cc4c(cc23)CN([C@H]2CCCN(Cc3ccccc3)C2)C(=O)N4)cc(C)n1 [Compound 363],< 50
12,Cc1cc(-c2n[nH]c3cc4c(cc23)CN([C@@H]2CN(C)C[C@H]2c2ccccc2F)C(=O)N4)cc(C)n1 (racemic) [Compound 306],< 50
13,Cc1cc(-c2n[nH]c3cc4c(cc23)CN(C(C)c2nc(C)c(C)s2)C(=O)N4)ccn1 (stereo not shown) [Compound 286],< 50
14,Cc1cc(-c2n[nH]c3cc4c(cc23)CN(C2CN(Cc3ccccc3)CC(F)(F)C2)C(=O)N4)ccn1 (stereo not shown) [Compound 200],< 50
15,Cc1cc(-c2n[nH]c3cc4c(cc23)CN(C(C)C2CCOCC2)C(=O)N4)ccn1 (stereo not shown) [Compound 262],< 50
16,O=C1Nc2cc3[nH]nc(-c4cccnc4)c3cc2CN1[C@@H]1CN(CC(F)(F)F)C[C@H]1c1ccccc1 [Compound 341],< 50
17,CC(c1ccccc1)c1cc2cc3c(-c4ccnc(N5CCOCC5)c4)n[nH]c3cc2[nH]c1=O (stereo not shown) [Compound 325],< 50
